Among the data in US20070004660A1, “Synergistic Modulation of Flt3 Kinase Using Alkylquinolines and Alkylquinazolines” (priority 2005, published 2007) are IC50 values, retold here.

In this assay the target is T1, wild-type FLT3 receptor (Homo sapiens, UniProt P36888).
T1 construct: host or cells: Baf3 (murine B cell lymphoma line), stably transfected
T1 sequence (P36888 27-993): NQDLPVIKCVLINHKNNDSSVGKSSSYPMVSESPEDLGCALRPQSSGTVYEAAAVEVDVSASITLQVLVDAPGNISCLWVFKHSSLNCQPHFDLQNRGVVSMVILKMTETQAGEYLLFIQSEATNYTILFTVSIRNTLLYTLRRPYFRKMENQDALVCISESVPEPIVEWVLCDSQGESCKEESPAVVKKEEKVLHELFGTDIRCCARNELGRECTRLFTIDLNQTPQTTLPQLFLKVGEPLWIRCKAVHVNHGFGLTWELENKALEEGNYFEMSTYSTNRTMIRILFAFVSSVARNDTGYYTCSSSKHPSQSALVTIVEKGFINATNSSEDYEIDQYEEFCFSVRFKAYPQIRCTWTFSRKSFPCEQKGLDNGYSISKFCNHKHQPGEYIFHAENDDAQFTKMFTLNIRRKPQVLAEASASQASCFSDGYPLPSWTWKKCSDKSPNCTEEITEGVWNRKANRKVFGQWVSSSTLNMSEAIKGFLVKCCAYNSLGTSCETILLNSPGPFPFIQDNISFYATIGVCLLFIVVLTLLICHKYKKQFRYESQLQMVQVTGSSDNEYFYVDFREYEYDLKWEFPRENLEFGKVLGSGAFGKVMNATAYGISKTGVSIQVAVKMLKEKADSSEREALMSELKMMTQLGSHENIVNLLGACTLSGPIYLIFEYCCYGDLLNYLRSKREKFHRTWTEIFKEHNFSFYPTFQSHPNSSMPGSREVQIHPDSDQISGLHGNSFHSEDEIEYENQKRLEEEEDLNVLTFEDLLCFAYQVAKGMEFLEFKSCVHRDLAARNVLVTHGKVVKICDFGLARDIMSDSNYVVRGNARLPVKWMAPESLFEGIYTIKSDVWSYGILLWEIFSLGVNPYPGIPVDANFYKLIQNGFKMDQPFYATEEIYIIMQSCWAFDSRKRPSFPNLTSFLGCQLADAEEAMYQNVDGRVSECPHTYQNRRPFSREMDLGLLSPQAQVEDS
The assay can be described thus: Cell-based FLT3 receptor ELISA (FLT ligand-induced phosphorylation in Baf3 FLT3 cells). The note with it: 100 ng/mL Flt ligand, uncertainty ±20%. Here is the method:
Specific cellular inhibition of FLT ligand-induced wild-type FLT3 phosphorylation was measured in the following manner: Baf3 FLT3 cells overexpressing the FLT3 receptor were obtained from Dr. Michael Heinrich (Oregon Health and Sciences University). The Baf3 FLT3 cell lines were created by stable transfection of parental Baf3 cells (a murine B cell lymphoma line dependent on the cytokine IL-3 for growth) with wild-type FLT3. Cells were selected for their ability to grow in the absence of IL-3 and in the presence of FLT3 ligand. Baf3 cells were maintained in RPMI 1640 with 10% FBS, penn/strep and 10 ng/ml FLT ligand at 37° C., 5% CO2. To measure direct inhibition of the wild-type FLT3 receptor activity and phosphorylation a sandwich ELISA method was developed similar to those developed for other RTKs (see Sadick, M D, Sliwkowski, M X, Nuijens, A, Bald, L, Chiang, N, Lofgren, J A, Wong W L T. Analysis of Heregulin-Induced ErbB2 Phosphorylation with a High-Throughput Kinase Receptor Activation Enzyme-Linked Immunsorbent Assay, Analytical Biochemistry. 1996; 235:207-214 and Baumann C A, Zeng L, Donatelli R R, Maroney A C. Development of a quantitative, high-throughput cell-based enzyme-linked immunosorbent assay for detection of colony-stimulating factor-1 receptor tyrosine kinase inhibitors. J Biochem Biophys Methods. 2004; 60:69-79.). 200 μL of Baf3FLT3 cells (1×10^6 /mL) were plated in 96 well dishes in RPMI 1640 with 0.5% serum and 0.01 ng/mL IL-3 for 16 hours prior to 1 hour compound or DMSO vehicle incubation. Cells were treated with 100 ng/mL Flt ligand (R&D Systems Cat# 308-FK) for 10 min. at 37° C. Cells were pelleted, washed and lysed in 100 ul lysis buffer (50 mM Hepes, 150 mM NaCl, 10% Glycerol, 1% Triton-X-100, 10 mM NaF, 1 mM EDTA, 1.5 mM MgCl2, 10 mM NaPyrophosphate) supplemented with phosphatase (Sigma Cat# P2850) and protease inhibitors (Sigma Cat #P8340). Lysates were cleared by centrifugation at 1000×g for 5 minutes at 4° C. Cell lysates were transferred to white wall 96 well microtiter (Costar #9018) plates coated with 50 ng/well anti-FLT3 antibody (Santa Cruz Cat# sc-480) and blocked with SeaBlock reagent (Pierce Cat#37527). Lysates were incubated at 4° C. for 2 hours. Plates were washed 3× with 200 ul/well PBS/0.1% Triton-X-100. Plates were then incubated with 1:8000 dilution of HRP-conjugated anti-phosphotyrosine antibody (Clone 4G10, Upstate Biotechnology Cat#16-105) for 1 hour at room temperature. Plates were washed 3× with 200 ul/well PBS/0.1% Triton-X-100. Signal detection with Super Signal Pico reagent (Pierce Cat#37070) was done according to manufacturer's instruction with a Berthold microplate luminometer. All data points are an average of triplicate samples. […] Inhibition and IC50 data analysis was done with GraphPad Prism using a non-linear regression fit with a multiparamater, sigmoidal dose-response (variable slope) equation.
On the technique in general: In an ELISA, binding on a coated surface is turned into a signal by an enzyme label.

Usually IC50 stands for the concentration needed to halve the response being measured. Lower therefore signals greater potency in that assay.

In turn, `CCC(C)c1ccc(NC(=O)N2CCC(c3ncnc4cc(OC)c(OC)cc34)CC2)cc1` (stereo not drawn) [Example 52, 4-(6,7-Dimethoxy-quinazolin-4-yl)-piperidine-1-carboxylic acid (4-sec-butyl-phenyl)-amide] had a 50% inhibitory concentration (IC50) of 7 nM.

Take `COc1cc2ncnc(C3CCN(C(=O)Nc4ccc(C(C)(C)C)cc4)CC3)c2cc1OC` [Example 53, 4-(6,7-Dimethoxy-quinazolin-4-yl)-piperidine-1-carboxylic acid (4-tert-butyl-phenyl)-amide]: 5 nM corresponded to half-maximal inhibition (IC50).

`COc1cc2ncnc(C3CCN(C(=O)NC4CCC(C(C)(C)C)CC4)CC3)c2cc1OC` (stereo not drawn) [Example 54, 4-(6,7-Dimethoxy-quinazolin-4-yl)-piperidine-1-carboxylic acid (4-tert-butyl-cyclohexyl)-amide] had a half-inhibitory concentration (IC50) of 266 nM.

With `COc1cc2ncnc(C3CCN(C(=O)Nc4ccc(C(C)O)cc4)CC3)c2cc1OC` (stereo not drawn) [Example 55, 4-(6,7-Dimethoxy-quinazolin-4-yl)-piperidine-1-carboxylic acid [4-(1-hydroxy-ethyl)-phenyl]-amide], the IC50 worked out at 1000 nM.

`COc1cc2ncnc(C3CCN(C(=O)Nc4ccc(OC(C)C)nc4)CC3)c2cc1OC` [Example 56, 4-(6,7-Dimethoxy-quinazolin-4-yl)-piperidine-1-carboxylic acid (6-isopropoxy-pyridin-3-yl)-amide] registered a concentration for half-maximal inhibition (IC50) of 10 nM.

`COc1cc2ncnc(C3CCN(C(=O)Nc4ccc(N5CCCC5=O)cc4)CC3)c2cc1OC` [Example 57, 4-(6,7-Dimethoxy-quinazolin-4-yl)-piperidine-1-carboxylic acid [4-(2-oxo-pyrrolidin-1-yl)-phenyl]-amide]: the IC50 stood at 381 nM.

With `COc1cc2ncnc(C3CCN(C(=O)Nc4ccc(-c5cncnc5)cc4)CC3)c2cc1OC` [Example 58, 4-(6,7-Dimethoxy-quinazolin-4-yl)-piperidine-1-carboxylic acid (4-pyrimidin-5-yl-phenyl)-amide], the 50% inhibitory concentration (IC50) amounted to 265 nM.

As to `COc1cc2ncnc(C3CCN(C(=O)Nc4ccc(-c5ccco5)cc4)CC3)c2cc1OC` [Example 59, 4-(6,7-Dimethoxy-quinazolin-4-yl)-piperidine-1-carboxylic acid (4-furan-2-yl-phenyl)-amide], the half-maximal inhibitory concentration (IC50) worked out at 27 nM.

Consider `COc1cc2ncnc(C3CCN(C(=O)Nc4ccc(-c5ccc(Cl)nc5)cc4)CC3)c2cc1OC` [Example 60, 4-(6,7-Dimethoxy-quinazolin-4-yl)-piperidine-1-carboxylic acid [4-(6-chloro-pyridin-3-yl)-phenyl]-amide], for which the IC50 was determined as 46 nM.

With `COc1cc2ncnc(C3CCN(C(=O)Nc4ccc(C5=CCN(C(=O)OC(C)(C)C)CC5)cc4)CC3)c2cc1OC` [Example 61, 4-(4-{[4-(6,7-Dimethoxy-quinazolin-4-yl)-piperidine-1-carbonyl]-amino}-phenyl)-3,6-dihydro-2H-pyridine-1-carboxylic acid tert-butyl ester], the midpoint of inhibition, the IC50, lay at 1800 nM.

Take `COc1cc2ncnc(C3CCN(C(=O)Nc4ccc(C5=CCNCC5)cc4)CC3)c2cc1OC` [Example 62, 4-(6,7-Dimethoxy-quinazolin-4-yl)-piperidine-1-carboxylic acid [4-(1,2,3,6-tetrahydro-pyridin-4-yl)-phenyl]-amide]: the half-inhibitory concentration (IC50) worked out at 976 nM.

The compound `COc1cc2ncnc(C3CCN(C(=O)Nc4ccc(C5CCN(C(=O)OC(C)(C)C)CC5)cc4)CC3)c2cc1OC` [Example 63, 4-(4-{[4-(6,7-Dimethoxy-quinazolin-4-yl)-piperidine-1-carbonyl]-amino}-phenyl)-piperidine-1-carboxylic acid tert-butyl ester] gave a half-inhibitory concentration (IC50) of 762 nM.

Regarding `CC(C)Oc1ccc(NC(=O)N2CCC(c3ncnc4cc(OCCCNS(C)(=O)=O)ccc34)CC2)cc1` [Example 65, 4-[7-(3-Methanesulfonylamino-propoxy)-quinazolin-4-yl]-piperidine-1-carboxylic acid (4-isopropoxy-phenyl)-amide], the half-inhibitory concentration (IC50) came to 37 nM.

For `CS(=O)(=O)NCCCOc1ccc2c(C3CCN(C(=O)Nc4ccc(N5CCOCC5)cc4)CC3)ncnc2c1` [Example 66, 4-[7-(3-Methanesulfonylamino-propoxy)-quinazolin-4-yl]-piperidine-1-carboxylic acid (4-morpholin-4-yl-phenyl)-amide], inhibition was half-maximal at 13 nM (IC50).

Consider `CC(C)Oc1ccc(NC(=O)N2CCC(c3ncnc4cc(OCCCN5CCCC5=O)ccc34)CC2)cc1` [Example 67, 4-{7-[3-(2-Oxo-pyrrolidin-1-yl)-propoxy]-quinazolin-4-yl}-piperidine-1-carboxylic acid (4-isopropoxy-phenyl)-amide], for which the midpoint of inhibition, the IC50, lay at 3 nM.

For `O=C1CCCN1CCCOc1ccc2c(C3CCN(C(=O)Nc4ccc(N5CCOCC5)cc4)CC3)ncnc2c1` [Example 68, 4-{7-[3-(2-Oxo-pyrrolidin-1-yl)-propoxy]-quinazolin-4-yl}-piperidine-1-carboxylic acid (4-morpholin-4-yl-phenyl)-amide], the concentration for half-maximal inhibition (IC50) came out at 29 nM.

Consider `COc1cc2ncnc(C3CCN(C(=O)Nc4ccc(OC5CCCC5)nc4)CC3)c2cc1OC` [Example 69, 4-(6,7-Dimethoxy-quinazolin-4-yl)-piperidine-1-carboxylic acid (6-cyclopentyloxy-pyridin-3-yl)-amide], for which half-maximal inhibition (IC50) was put at 29 nM.

Take `O=C1CCCN1CCCOc1ccc2c(C3CCN(C(=O)Nc4ccc(N5CCOCC5)nc4)CC3)ncnc2c1` [Example 72, 4-{7-[3-(2-Oxo-pyrrolidin-1-yl)-propoxy]-quinazolin-4-yl}-piperidine-1-carboxylic acid (6-morpholin-4-yl-pyridin-3-yl)-amide]: the IC50 was determined as 28 nM.

With `CN1CCN(CCCOc2ccc3c(C4CCN(C(=O)Nc5ccc(N6CCOCC6)cc5)CC4)ncnc3c2)CC1` [Example 73, 4-{7-[3-(4-Methyl-piperazin-1-yl)-propoxy]-quinazolin-4-yl}-piperidine-1-carboxylic acid (4-morpholin-4-yl-phenyl)-amide], the IC50 was 92 nM.

In the case of `O=C1CCCN1CCOc1ccc2c(C3CCN(C(=O)Nc4ccc(N5CCCC5)cc4)CC3)ncnc2c1` [Example 74, 4-{7-[2-(2-Oxo-pyrrolidin-1-yl)-ethoxy]-quinazolin-4-yl}-piperidine-1-carboxylic acid (4-pyrrolidin-1-yl-phenyl)-amide], half-maximal inhibition (IC50) required 12 nM.

As for `O=C(Nc1ccc(N2CCOCC2)cc1)N1CCC(c2ncnc3cc(OCCCN4CCCCC4)ccc23)CC1` [Example 75], it took 84 nM to reach half-maximal inhibition (IC50).
